One series concerns NCIH929.1 cells. Kind of series: NCIH929.1 cell viability assay (CellTiter-Glo, GI50). The conditions noted are these: 96 hr. Type of series: cell-based. For orientation: In ATP-based viability assays light output follows the ATP content of the culture.
In a further series the test system is TMD8 DLBCL tumors. To be noted: Compound 1 50 μg/kg, Ibrutinib 12500 μg/kg, Combination of both; PO daily.
The subject of another series is r/r subjects with MCL. The conditions noted are these: r/r MCL following bortezomib; cited from earlier work.
Series [1] has as its system RPMI-8226 multiple myeloma tumors. The conditions noted are these: Compound 1 10 μg/kg PO daily, Dexamethasone 5000 μg/kg IV once a week, Combination.
Method: A xenograft study was conducted in female CB17 SCID mice bearing RPMI-8226 multiple myeloma tumors. Female SCID mice were inoculated subcutaneously in the right flank with 10×10^6 tumors cells in 0.2 mL of PBS supplemented with matrigel (PBS:matrigel=1:1). Tumor volume was measured twice weekly in two dimensions using calipers, and volume was calculated using the formula: (w2×l)/2=mm^3, assuming 1 mg is equivalent to 1 mm^3 of tumor volume. […] Treatment began on Day 0 with established subcutaneous RPMI-8226 tumors with a mean tumor volume (MTV) of 130 mm^3.
All agents were administered to mice bearing RPMI-8226 tumors on day 0 and dosed until an individual moue tumor volume reached or exceeded 1000 mm^3, at which point the mouse was removed from the study and dosing stopped. […] Dexamethasone was dosed IV once a week at 5000 μg/kg and formulated in saline. […] Body weight and MTV were measured on a 2× weekly schedule. The study end point was reaching a TV greater than 1000 mm^3, at which point any mouse with a TV reaching this cut off TV was removed from the study. […] The survival analysis used was Logrank (Mantel-Cox test). Data are expressed as MTV±SEM.
Series [2] in a line: Plasma PK and interconversion in monkeys. Type of series: in vivo. To be noted: monkey, Compound 1 60 μg/kg or 100 μg/kg PO, dose normalized to 1 mg/kg. As to the method:
(§1) Compound 1 was administered to a rat at a concentration of 30 mg/kg PO and monkeys at a concentration of either 60 μg/kg or 100 μg/kg PO. At the indicated timepoints shown in FIG. 25A and FIG. 25B, plasma samples were collected and the Cmax, half-life, and AUC0-inf were determined for both Compound 1 and a metabolite of Compound 1, Compound 14. The percent of Compound 14 was also determined (Table 13). PK values dose normalized to 1 mg/kg. FIG. 25A is a graph measuring the concentration of Compound 1 or Compound 14 over the course of 24 hours in monkeys administered 100 μg/kg or 60 μg/kg of Compound 1. FIG. 25B is a graph measuring the concentration of Compound 1 or Compound 14 over the course of 24 hours in a rat administered 30 mg/kg of Compound 1.

Series [3] can be described thus: Plasma PK and interconversion in rat. Format: in vivo. To be noted: Compound 1 30 mg/kg PO. The method, then:
as §1

Method for TMD8 DLBCL tumors: A xenograft study was conducted in female CB17 SCID mice bearing TMD8 DLBCL tumors. Female SCID mice were inoculated subcutaneously in the right flank with 5×10^6 tumors cells in 0.2 mL of PBS supplemented with matrigel (PBS:matrigel=1:1). Tumor volume was measured twice weekly in two dimensions using calipers, and volume was calculated using the formula: (w2×l)/2=mm^3, assuming 1 mg is equivalent to 1 mm^3 of tumor volume. […] Treatment began on Day 0 with established subcutaneous TMD8 tumors with a mean tumor volume (MTV) of 107-108 mm^3.
All agents were administered to mice bearing TMD8 tumors on day 0 and dosed PO daily until individual tumor volumes reached or exceeded 1500 mm^3, at which point dosing stopped and the individual mouse was removed from the study. Compound 1 was dosed at 50 μg/kg and was formulated in PEG400 (30% v/v)+70% v/v HPMC (1% w/v) in citrate buffer (pH 5). Ibrutinib was dosed at 12.5 mg/kg and formulated in 0.5% MC+0.4% cremophor EL+0.1% sodium lauryl sulfate. Compound 1 was also dosed in combination with Ibrutinib at their respective single agent doses. Body weight and MTV was measured on a 2× weekly schedule and the study end point was when all mice were removed from the study on day 54. Statistical analysis was performed using survival analysis and the Logrank test (Mantel-Cox test). Data are expressed as MTV±SEM.

As to `CC1(C(=O)N2CCC(C)(n3cc(Cc4ccc5c6c(cccc46)C(=O)N5C4CCC(=O)NC4=O)cn3)CC2)CCC1` (centres unmarked) [Compound 6, 3-(6-((1-(4-methyl-1-(1-methylcyclobutane-1-carbonyl)piperidin-4-yl)-1H-pyrazol-4-yl)methyl)-2-oxobenzo[cd]indol-1(2H)-yl)piperidine-2,6-dione], the GI50 – broadly, the concentration giving 50% growth inhibition – in the series on NCIH929.1 cells came to 0.0146 nM.
On the same count and under the same terms, with `O=C1CCC(N2C(=O)c3cccc4c(Cc5cnn(C6CCN(CC7(F)CC7)CC6)c5)ccc2c34)C(=O)N1` (centres unmarked) [Compound 13, 3-(6-((1-(1-((1-fluorocyclopropyl)methyl)piperidin-4-yl)-1H-pyrazol-4-yl)methyl)-2-oxobenzo[cd]indol-1(2H)-yl)piperidine-2,6-dione] the figure was 0.155 nM.
`CC(C)(C)CN1CCC(C)(n2cc(Cc3ccc4c5c(cccc35)C(=O)N4C3CCC(=O)NC3=O)cn2)CC1` (centres unmarked) [Compound 10, 3-(6-((1-(4-methyl-1-neopentylpiperidin-4-yl)-1H-pyrazol-4-yl)methyl)-2-oxobenzo[cd]indol-1(2H)-yl)piperidine-2,6-dione] returned a 50% growth inhibitory concentration (GI50) with NCIH929.1 cells of 0.0621 nM.
In the case of `CC(C)(C)C(=O)N1CCC(C)(n2cc(Cc3ccc4c5c(cccc35)C(=O)N4C3CCC(=O)NC3=O)cn2)CC1` (centres unmarked) [Compound 11, 3-(6-((1-(4-methyl-1-pivaloylpiperidin-4-yl)-1H-pyrazol-4-yl)methyl)-2-oxobenzo[cd]indol-1(2H)-yl)piperidine-2,6-dione], growth in the series on NCIH929.1 cells was halved (GI50) at 0.0272 nM.
Take `C=CC(=O)N1CCC[C@@H](n2nc(-c3ccc(Oc4ccccc4)cc3)c3c(N)ncnc32)C1` [Ibrutinib, 1-[(3R)-3-[4-amino-3-(4-phenoxy-phenyl)pyrazolo[3,4-d]pyrimidin-1-yl]piperidin-1-yl]prop-2-en-1-one, reference compound]: the “Median Survival” value in the series with TMD8 DLBCL tumors came to 28.
`CC1(CN2CCC(C)(n3cc(Cc4ccc5c6c(cccc46)C(=O)N5C4CCC(=O)NC4=O)cn3)CC2)CC1` (centres unmarked) [Compound 8, 3-(6-((1-(4-methyl-1-((1-methylcyclopropyl)methyl)piperidin-4-yl)-1H-pyrazol-4-yl)methyl)-2-oxobenzo[cd]indol-1(2H)-yl)piperidine-2,6-dione]: the GI50 with NCIH929.1 cells was found to be 0.138 nM. That is a sub-nanomolar value.
The same measure, in the same setting: with `O=C1CCC(N2C(=O)c3cccc4c(Cc5ccc(CN6CCOCC6)cc5)ccc2c34)C(=O)N1` (centres unmarked) [Compound 5, 3-(6-(4-(morpholinomethyl)benzyl)-2-oxobenzo[cd]indol-1(2H)-yl)piperidine-2,6-dione] the figure was 0.0498 nM; with `O=C1CC[C@H](N2C(=O)c3cccc4c(Cc5ccc(CN6CCC7(CCCO7)CC6)cc5)ccc2c34)C(=O)N1` (single isomer, unassigned) [Compound 12], 0.0107 nM; with `CC1(CN2CCC(n3cc(Cc4ccc5c6c(cccc46)C(=O)N5C4CCC(=O)NC4=O)cn3)CC2)CC1` (centres unmarked) [Compound 7, 3-(6-((1-(1-((1-methylcyclopropyl)methyl)piperidin-4-yl)-1H-pyrazol-4-yl)methyl)-2-oxobenzo[cd]indol-1(2H)-yl)piperidine-2,6-dione], 0.0159 nM.
In turn, `O=C1CCC(N2C(=O)c3cccc4c(Cc5ccc(CN6CCN(c7ccccc7F)CC6)cc5)ccc2c34)C(=O)N1` (centres unmarked) [Compound 3, 3-(6-(4-((4-(2-fluorophenyl)piperazin-1-yl)methyl)benzyl)-2-oxobenzo[cd]indol-1(2H)-yl)piperidine-2,6-dione] returned a GI50 in the series on NCIH929.1 cells of 0.0409 nM.
On the same count and under the same terms, with `CC1(CN2CCC(n3cc(Cc4ccc5c6c(cccc46)C(=O)N5C4CCC(=O)NC4=O)cn3)CC2)CCC1` (centres unmarked) [Compound 2, 3-(6-((1-(1-((1-methylcyclobutyl)methyl)piperidin-4-yl)-1H-pyrazol-4-yl)methyl)-2-oxobenzo[cd]indol-1(2H)-yl)piperidine-2,6-dione] the figure was 0.00933 nM; with `N#Cc1ccc(N2CCN(Cc3ccc(Cc4ccc5c6c(cccc46)C(=O)N5C4CCC(=O)NC4=O)cc3)CC2)c(F)c1` (centres unmarked) [Compound 4, 4-(4-(4-((1-(2,6-dioxopiperidin-3-yl)-2-oxo-1,2-dihydrobenzo[cd]indol-6-yl)methyl)benzyl)piperazin-1-yl)-3-fluorobenzonitrile], 0.0201 nM.
Turning to `Nc1cccc2c1CN(C1CCC(=O)NC1=O)C2=O` (centres unmarked) [lenalidomide], in the series on r/r subjects with MCL, the “median duration of response [DOR]” value is 16.6 months and the “overall response rate [ORR]” value was 28%.
For `C[C@@H]1C[C@H]2[C@@H]3CCC4=CC(=O)C=C[C@]4(C)[C@@]3(F)[C@@H](O)C[C@]2(C)[C@@]1(O)C(=O)CO` [Dexamethasone, reference compound], in series [1], the “Median Survival” value came to 30.
In turn, `CC(C)(C)CN1CCC(n2cc(Cc3ccc4c5c(cccc35)C(=O)N4C3CCC(=O)NC3=O)cn2)CC1` (centres unmarked) [Compound 9, 3-(6-((1-(1-neopentylpiperidin-4-yl)-1H-pyrazol-4-yl)methyl)-2-oxobenzo[cd]indol-1(2H)-yl)piperidine-2,6-dione] had a GI50 in the series on NCIH929.1 cells of 0.0297 nM.
With `O=C1CC[C@@H](N2C(=O)c3cccc4c(Cc5ccc(CN6CCOCC6)cc5)ccc2c34)C(=O)N1` [Compound 14], the peak level in series [2] (Cmax) was 5 ng/mL. Besides, in series [3] (dose normalized to 1 mg/kg), the AUC(0-inf) (in general, the area under the concentration-time curve extrapolated to infinity) came to 47 ng·h/mL and the concentration peaked (Cmax) at 6 ng/mL. Also, in series [3] (read-out: T ½ (converted)), the half-life was 2.7 h.

Values taken from patent US20230190760A1, “ADVANTAGEOUS THERAPIES FOR DISORDERS MEDIATED BY IKAROS OR AIOLOS” (C4 Therapeutics, Inc., priority 2020, published 2023).
